According to patent US7205307B2, “Pyrimidines as novel openers of potassium ion channels” (Icagen, Inc., priority 2002, dated 2007):
pEC50: −log10 of the molar value.

The molecules below were run on voltage gated K+ channels (assay: test assay chosen for cells expressing voltage gated K+ channels (opening of voltage-gated potassium channels)). Conditions: relative potency.
Type: cell-based
Description: Utilizing screening assays such as described above, compounds of the invention were tested for their ability to open voltage-gated potassium channels. The results of these assays are set forth in Table 1 in which the data are presented in terms of relative potency of the compounds tested to one another.
This example illustrates screening protocols for evaluating putative potassium channel agonists for the ability to open voltage-gated potassium channels.
NG108-15 cells, a mouse neuroblastoma, rat glioma hybrid cell line, functionally express M-currents (Robbins et al., J. Physiol. 451: 159–85 (1992). NG108-15 M-currents are likely comprised, at least in part, of KCNQ2, KCNQ3 and KCNQ5, since these genes are reportedly robustly expressed in differentiated NG108-15 cells (Selyanko et al., J. Neurosci. 19(18): 7742–56 (1999); Schroeder et al., J. Biol. Chem. 275(31): 24089–95 (2000)) and KCNQ3 dominant- negative constructs reduce M-current density in these cells (Selyanko et al., J. Neurosci. 22(5): RC212 (2002).
NG108–15 are maintained in DMEM (high glucose) supplemented with 10% fetal bovine serum, 0.05 mM pyridoxine, 0.1 mM hypoxanthine, 400 nM aminopterin, […] thymidine, 50 μgml^−1 gentamycin and 10 mM HEPES, in an incubator at 37° C. with a humidified atmosphere of 5% CO2. Cells are plated in 96 well plates and are differentiated by addition of 10 μM PGE1 and 50 μM isomethylbutylxanthine to the growth media prior to study.
Differentiated NG108–15 cells are loaded with voltage-sensitive dye by incubation in Earls Balanced Salt Solution (EBSS) containing […] DiBAC for 1 h. Following loading, drug solution containing […] DiBAC is added to each well. Changes in fluorescence are measured every 30 s for 25 min. The maximum change in fluorescence is measured and can be expressed as a percentage of the maximum response obtained in the presence of a positive control agent.
Alternatively, cells expressing voltage-gated K^+ channels, such as KCNQ2-like channels can be loaded with ^86Rb^+ by culture in media containing ^86RbCl. Following loading, culture media is removed and the cells are washed in EBSS to remove residual traces of ^86Rb^+. Cells are preincubated with drug (0.01–30 μM in EBSS) and then ^86Rb^+ efflux is stimulated by exposing cells to EBSS solution supplemented with a sub-maximal concentration of KCl (generally 7–20 mM) in the continued presence of drug. After a suitable efflux period, the EBSS/KCl solution is removed from the cells and the ^86Rb^+ content can be determined by Cherenkov counting (Wallac Trilux). Cells are then lysed with a SDS solution and the ^86Rb^+ content of the lysate can be determined. Percent ^86Rb^+ efflux is calculated according to: (^86Rb^+ content in EBSS/(^86Rb^+ content in EBSS+^86Rb^+ content of the lysate))*100
Efflux is normalized to the maximal ^86Rb^+ efflux (i.e., that which can be induced by a high concentration of KCl, generally 30–135 mM).

Row | Structure (SMILES) | pEC50
1 | Cc1ncc(NC(=O)c2ccc(F)c(F)c2)cn1 [Compound 8, 3,4-difluoro-N-(2-methyl-pyrimidin-5-yl)-benzamide] | 5.00 to 6.00
2 | O=C(Nc1cnc(Cl)nc1)c1cccc(Cl)c1 [Compound 5, 3-Chloro-N-(2-chloro-pyrimidin-5-yl)-benzamide] | 5.00 to 6.00
3 | O=C(Nc1cnc(Cl)nc1)c1ccc(Cl)c(F)c1 [Compound 44, 4-Chloro-N-(2-chloro-pyrimidin-5-yl)-3-fluoro-benzamide] | > 6.30
4 | O=C(Nc1cnc(Cl)nc1)c1cccc(F)c1 [Compound 9, N-(2-chloro-pyrimidin-5-yl)-3-fluoro-benzamide] | 5.00 to 6.00
5 | O=C(Nc1cnc(Cl)nc1)c1ccc(F)c(F)c1 [Compound 4, N-(2-Chloro-pyrimidin-5-yl)-3,4-difluoro-benzamide] | 6.00 to 6.30
6 | O=C(Nc1cnc(Cl)nc1)c1ccc(Cl)s1 [Compound 20, 5-Chloro-thiophene-2-carboxylic acid (2-chloro-pyrimidin-5-yl)-amide] | 6.00 to 6.30
7 | Cc1ccc(C(=O)Nc2cnc(Cl)nc2)cc1F [Compound 90, N-(2-Chloro-pyrimidin-5-yl)-3-fluoro-4-methyl-benzamide] | 6.00 to 6.30
8 | O=C(Nc1cnc(Cl)nc1)c1cccc(C(F)(F)F)c1 [Compound 3, N-(2-chloro-pyrimidin-5-yl)-3-trifluoromethyl-benzamide] | 5.00 to 6.00
9 | CC(C)S(=O)(=O)c1ccc(C(=O)Nc2cnc(Cl)nc2)cc1F [Compound 91, N-(5-amino-2-chloro-pyrimidine)-3-fluoro-4-(propane-2-sulfonyl)-benzamide] | 5.00 to 6.00
